# Assay results reported in US11452725B2, “Chiral diaryl macrocycles and uses thereof” (TURNING POINT THERAPEUTICS, INC., priority 2015, dated 2022).
# What was measured:
# FGR = biological target: T1, FGR (Homo sapiens, UniProt P09769); assay: Biochemical kinase assay (Reaction Biology); settings: 10 μM ATP
# T1 construct: purchased Reaction Biology Corporation
# Procedure: (§2) Specific kinase/substrate pairs along with required cofactors were prepared in reaction buffer; 20 mM Hepes pH 7.5, 10 mM MgCl2, 1 mM EGTA, 0.02% Brij35, 0.02 mg/ml BSA, 0.1 mM Na3VO4, 2 mM DTT, 1% DMSO (for specific details of individual kinase reaction components see Supplementary Table 2). Compounds were delivered into the reaction, followed ˜20 minutes later by addition of a mixture of ATP (Sigma, St. Louis Mo.) and ^33P ATP (Perkin Elmer, Waltham Mass.) to a final concentration of 10 μM. Reactions were carried out at room temperature for 120 min, followed by spotting of the reactions onto P81 ion exchange filter paper (Whatman Inc., Piscataway, N.J.). […] IC50 values and curve fits were obtained using Prism (GraphPad Software).
# IRR = biological target: T2, IRR (Homo sapiens, UniProt P14616); assay: Biochemical kinase assay (Reaction Biology); settings: 10 μM ATP
# T2 construct: purchased Reaction Biology Corporation (contract assay)
# T2 sequence (P14616 27-1297): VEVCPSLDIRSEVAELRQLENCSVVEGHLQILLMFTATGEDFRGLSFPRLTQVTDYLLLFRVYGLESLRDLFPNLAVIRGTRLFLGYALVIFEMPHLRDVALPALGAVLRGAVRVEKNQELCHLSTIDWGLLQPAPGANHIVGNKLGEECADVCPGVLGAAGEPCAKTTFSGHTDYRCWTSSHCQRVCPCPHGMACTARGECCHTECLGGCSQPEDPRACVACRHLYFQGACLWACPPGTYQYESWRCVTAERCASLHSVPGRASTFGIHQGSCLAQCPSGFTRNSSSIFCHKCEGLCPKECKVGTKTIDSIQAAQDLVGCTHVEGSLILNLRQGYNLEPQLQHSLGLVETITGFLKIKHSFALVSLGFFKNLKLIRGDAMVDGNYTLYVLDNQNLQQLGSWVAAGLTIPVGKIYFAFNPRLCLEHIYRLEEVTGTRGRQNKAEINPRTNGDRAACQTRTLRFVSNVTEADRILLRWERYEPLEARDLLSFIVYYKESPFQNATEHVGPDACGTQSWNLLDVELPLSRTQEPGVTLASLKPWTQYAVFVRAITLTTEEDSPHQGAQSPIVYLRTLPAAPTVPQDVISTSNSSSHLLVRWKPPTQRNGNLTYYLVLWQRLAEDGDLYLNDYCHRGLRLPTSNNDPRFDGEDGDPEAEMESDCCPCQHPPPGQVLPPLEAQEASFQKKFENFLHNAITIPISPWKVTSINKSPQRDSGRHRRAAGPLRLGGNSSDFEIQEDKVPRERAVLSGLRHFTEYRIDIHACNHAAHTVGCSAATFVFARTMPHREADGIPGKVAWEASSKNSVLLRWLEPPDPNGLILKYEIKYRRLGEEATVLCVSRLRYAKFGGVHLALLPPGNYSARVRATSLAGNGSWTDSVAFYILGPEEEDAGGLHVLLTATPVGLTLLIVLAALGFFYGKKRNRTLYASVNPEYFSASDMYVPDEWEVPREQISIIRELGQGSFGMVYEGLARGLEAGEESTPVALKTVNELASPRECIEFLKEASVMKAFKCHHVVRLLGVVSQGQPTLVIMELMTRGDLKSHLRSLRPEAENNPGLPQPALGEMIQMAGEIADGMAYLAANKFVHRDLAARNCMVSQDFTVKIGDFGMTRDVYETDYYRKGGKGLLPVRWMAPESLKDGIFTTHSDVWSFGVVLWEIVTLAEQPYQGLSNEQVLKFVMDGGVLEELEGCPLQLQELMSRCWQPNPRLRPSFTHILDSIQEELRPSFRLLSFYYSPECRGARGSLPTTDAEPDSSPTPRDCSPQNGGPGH
# Procedure: as §2
# PLK4 = biological target: T3, PLK4 (Homo sapiens, UniProt O00444); assay: Biochemical kinase assay (Reaction Biology); settings: 10 μM ATP
# T3 construct: purchased Reaction Biology Corporation (contract assay)
# T3 sequence (O00444 whole entry): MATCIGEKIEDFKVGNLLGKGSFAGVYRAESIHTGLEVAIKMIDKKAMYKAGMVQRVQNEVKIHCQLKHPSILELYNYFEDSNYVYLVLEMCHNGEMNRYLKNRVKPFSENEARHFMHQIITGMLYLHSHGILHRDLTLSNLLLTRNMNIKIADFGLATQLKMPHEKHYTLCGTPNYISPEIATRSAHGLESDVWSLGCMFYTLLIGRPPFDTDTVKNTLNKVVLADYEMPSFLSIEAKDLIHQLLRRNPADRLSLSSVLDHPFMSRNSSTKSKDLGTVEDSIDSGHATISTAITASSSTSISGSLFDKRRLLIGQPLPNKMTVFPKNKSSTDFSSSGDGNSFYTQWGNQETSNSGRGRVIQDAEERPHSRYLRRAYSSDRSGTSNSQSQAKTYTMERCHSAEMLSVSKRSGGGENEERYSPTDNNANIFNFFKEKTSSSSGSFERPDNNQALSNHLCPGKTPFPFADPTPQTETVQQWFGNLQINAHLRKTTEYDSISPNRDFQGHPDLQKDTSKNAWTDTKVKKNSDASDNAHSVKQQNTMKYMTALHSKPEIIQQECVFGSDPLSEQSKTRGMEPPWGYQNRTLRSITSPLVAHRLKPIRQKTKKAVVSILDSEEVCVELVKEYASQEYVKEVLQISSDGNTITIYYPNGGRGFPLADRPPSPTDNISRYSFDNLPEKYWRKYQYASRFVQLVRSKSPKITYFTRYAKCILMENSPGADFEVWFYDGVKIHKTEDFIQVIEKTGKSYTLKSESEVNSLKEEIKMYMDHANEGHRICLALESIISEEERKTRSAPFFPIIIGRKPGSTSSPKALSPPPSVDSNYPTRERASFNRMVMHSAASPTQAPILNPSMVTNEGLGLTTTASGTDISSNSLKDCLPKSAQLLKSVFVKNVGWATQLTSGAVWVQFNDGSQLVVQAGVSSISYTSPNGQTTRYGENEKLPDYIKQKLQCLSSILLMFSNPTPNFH
# Procedure: as §2
# NCI-H2228 cell line = assay: Cell proliferation assay (CellTiter-Glo); assay type: cell-based; settings: Homo sapiens, 72 hours, EML4-ALK fusion gene
# Procedure: (§3) Two thousand cells per well were seeded in 384 well white plate for 24 hrs, and then treated with compounds for 72 hours (37° C., 5% CO2). Cell proliferation was measured using CellTiter-Glo luciferase-based ATP detection assay (Promega) following the manufactures's protocol. IC50 determinations were performed using GraphPad Prism software (GraphPad, Inc., San Diego, Calif.).
# SET-2 cell line = assay: Cell proliferation assay (CellTiter-Glo); assay type: cell-based; settings: Homo sapiens, 72 hours, JAK2 V617F mutation
# Procedure: as §3
# [1] = tested on: Ba/F3 EML4-ALK L1152P cell line; assay: Cell proliferation assay (CellTiter-Glo); assay type: cell-based; settings: Mus musculus, 72 hours
# [2] = tested on: Ba/F3 TEL-TRKC (ETV6-TRKC) G623R cell line; assay: Cell proliferation assay (CellTiter-Glo); assay type: cell-based; settings: Mus musculus, BaF3; 72 hours
# AKT = assay: Immunoblotting downstream signaling, HCC78 cells; assay type: cell-based; settings: Homo sapiens; HCC78 cell line; read-out: downstream AKT phosphorylation IC50
# Procedure: (§1) NSCLC cell line H2228 (harboring endogenous EML4-ALK fusion gene), HCC78 cells (harboring endogenous SLC34A2-ROS1 fusion gene), Karpas-299 cells (harboring endogenous NPM-ALK fusion gene) or SET-2 (harboring endogenous JAK2V617F activating mutation) were cultured in RPMI medium, and KM12 (harboring endogenous TPM3-TRKA fusion gene) cell line was cultured in DMEM medium, both supplemented with 10% fetal bovine serum and 100 U/mL of penicillin/streptomycin. Ba/F3 and NIH3T3 cells stably expressing ALK or ROS1 (WT or mutant) were culture as mentioned above. […] Protein lysates (approximately 20 μg) was resolved on 4-12% Bolt Bis-Tris precasted gels with MES running buffer (Life Technologies), transferred to nitrocellulose membranes using Trans-Blot Turbo Transfer System (Bio-Rad) and detected with antibodies targeting phosphorylated ALK Y1604 (Cell Signaling Technology), total ALK (Cell Signaling Technology), phosphorylated ROS1 and total ROS1 (Cell Signaling Technology), phosphorylated TRK A/B (Cell Signaling Technology), total TRKA antibody (Santa Cruz Biotechnology), phosphorylated STAT3 and STAT5, total STAT3 and STAT5 (Cell Signaling Technology), phosphorylated AKT (Cell Signaling Technology), total AKT (Cell Signaling Technology), phosphorylated ERK (Cell Signaling Technology), total ERK (Cell Signaling Technology) and Tubulin (Sigma). […]
# STAT3 = assay: Immunoblotting downstream signaling, HCC78 cells; assay type: cell-based; settings: Homo sapiens; HCC78 cell line; read-out: downstream STAT3 phosphorylation IC50
# Procedure: as §1
# EGFR = EGFR expression by immunoblotting in H2228 cells; assay type: cell-based, human; settings: 4 and 24 hour exposure, 0-1000 nM
# Procedure: NSCLC cell line H2228 (harboring endogenous EML4-ALK fusion gene) was cultured in RPMI medium supplemented with 10% fetal bovine serum and 100 U/mL of penicillin/streptomycin. Ba/F3 and NIH3T3 cells stably expressing ROS1, or TRKA, or TRKB, or TRKC (WT or mutant) were cultured as mentioned above. […] Cells were collected after treatment and lysed in RIPA buffer (50 mM Tris, pH 7.4, 150 mM NaCl, 1% NP-40, 0.5% Deoxycholate, 0.1% SDS) supplemented with 10 mM EDTA, 1× Halt protease and phosphatase inhibitors (Thermo Scientific). Protein lysates (approximately 20 μg) was resolved on 4-12% Bolt Bis-Tris precasted gels with MES running buffer (Life Technologies), transferred to nitrocellulose membranes using Trans-Blot Turbo Transfer System (Bio-Rad) and detected with antibodies targeting phosphorylated phosphorylated ROS1 and total ROS1 (Cell Signaling Technology), phosphorylated TRK A/B (Cell Signaling Technology), total TRKA antibody (Santa Cruz Biotechnology), phosphorylated SRC Y416 (Cell Signaling Technology), total SRC (Cell Signaling Technology), phosphorylated FAK Y576/577 (Cell Signaling Technology), total FAK (Cell Signaling Technology), phosphorylated paxillin Y118 (Cell Signaling Technology), total paxillin (Cell Signaling Technology), phosphorylated EGFR and total EGFR, CD44, and Tubulin (Sigma). […]
# T1 sequence (P09769 whole entry): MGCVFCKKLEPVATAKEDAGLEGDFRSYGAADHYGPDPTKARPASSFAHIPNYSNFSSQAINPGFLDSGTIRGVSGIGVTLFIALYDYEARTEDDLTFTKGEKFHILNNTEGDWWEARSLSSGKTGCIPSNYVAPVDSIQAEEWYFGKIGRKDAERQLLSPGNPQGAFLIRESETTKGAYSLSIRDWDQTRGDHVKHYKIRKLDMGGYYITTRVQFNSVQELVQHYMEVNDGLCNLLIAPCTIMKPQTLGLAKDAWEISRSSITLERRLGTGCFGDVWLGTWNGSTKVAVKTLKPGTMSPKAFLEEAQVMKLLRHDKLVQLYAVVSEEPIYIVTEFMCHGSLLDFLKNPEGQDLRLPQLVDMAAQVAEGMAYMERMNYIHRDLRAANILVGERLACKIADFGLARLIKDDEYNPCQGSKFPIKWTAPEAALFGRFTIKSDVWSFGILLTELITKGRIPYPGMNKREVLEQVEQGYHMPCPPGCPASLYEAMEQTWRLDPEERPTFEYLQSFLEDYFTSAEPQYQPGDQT
structure (smiles),measurement,setting,value
"C[C@H]1CNC(=O)c2cnn3ccc(nc23)N[C@H](C)c2cc(F)ccc2O1 [Compound 1, (7S,13R)-11-fluoro-7,13-dimethyl-6,7,13,14-tetrahydro-1,15-ethenopyrazolo[4,3-f][1,4,8,10]benzoxatriazacyclotridecin-4(5H)-one]",IC50,FGR,0.00305 µM
same,IC50,IRR,0.0181 µM
same,IC50,PLK4,0.126 µM
same,IC50,NCI-H2228 cell line,0.073 µM
same,IC50,SET-2 cell line,0.169 µM
same,IC50,[1],0.085 µM
same,IC50,[2],0.003 µM
same,IC50,AKT,0.001 to 0.003 µM
same,IC50,STAT3,0.001 to 0.003 µM
same,EGFR expression,EGFR,down-regulated EGFR expression in a dose- and time-dependent manner
